Data published in ChEMBL document CHEMBL3638691, “Quinoline derivatives and MELK inhibitors containing the same” (2015).
Values joined by “and” are separate entries in the source; they are usually repeats but may differ in a detail not shown here. Equal values may be shown once.

Molecular target: Maternal embryonic leucine zipper kinase (Homo sapiens, UniProt Q14680)
Test: Kinase Assay: MELK activity was determined in the presence or absence of compounds using fluorescein isothiocyanate-labeled (FITC-labeled) histone H3 peptide as a substrate. The extent of FITC-labeled histone H3 peptide phosphorylation was measured by immobilized metal ion affinity-based fluorescence polarization (IMAP) technology (Sportsman J R, et al., Assay Drug Dev. Technol. 2: 205-14, 2004) using IMAP FP Progressive Binding System (Molecular Devices Corporation). Test compounds were dissolved in DMSO at 12.5 mM and then serially diluted as the DMSO concentration in the assays to be 1%. The serially diluted compounds, 0.8 ng/micro-L PBK (Carna Biosciences) and 100 nM FITC-labeled histone H3 peptide were reacted in a reaction buffer (20 mM HEPES, 0.01% Tween-20, 0.3 mM MgCl2, 2 mM dithiothreitol, 50 micro-M ATP, pH 7.4) at room temperature for 1 hour. The reaction was stopped by the addition of three fold assay volume of progressive binding solution. Following 0.5 hour incubation at room temperature.

Sequence of Maternal embryonic leucine zipper kinase (Q14680 whole entry): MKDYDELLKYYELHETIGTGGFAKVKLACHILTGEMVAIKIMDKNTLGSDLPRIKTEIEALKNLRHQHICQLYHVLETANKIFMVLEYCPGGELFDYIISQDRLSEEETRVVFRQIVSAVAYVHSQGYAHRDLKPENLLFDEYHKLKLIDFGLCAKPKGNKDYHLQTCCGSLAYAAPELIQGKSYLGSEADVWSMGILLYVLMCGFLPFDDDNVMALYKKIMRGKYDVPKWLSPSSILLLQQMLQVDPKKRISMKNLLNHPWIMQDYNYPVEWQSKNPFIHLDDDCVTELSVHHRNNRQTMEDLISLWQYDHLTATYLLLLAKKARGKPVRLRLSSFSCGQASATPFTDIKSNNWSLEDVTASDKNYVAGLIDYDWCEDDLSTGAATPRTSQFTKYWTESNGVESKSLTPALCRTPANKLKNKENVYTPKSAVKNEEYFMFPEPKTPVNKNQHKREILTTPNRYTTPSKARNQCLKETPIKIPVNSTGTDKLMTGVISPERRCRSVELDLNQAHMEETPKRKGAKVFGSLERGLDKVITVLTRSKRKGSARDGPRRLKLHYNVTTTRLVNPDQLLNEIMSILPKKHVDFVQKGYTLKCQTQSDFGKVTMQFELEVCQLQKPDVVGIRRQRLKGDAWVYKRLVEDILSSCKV

Structure (SMILES): CC(=O)c1cnc2ccc(-c3cc(Cl)c(O)c(Cl)c3)cc2c1N[C@H]1CC[C@H](CN(C)C)CC1
- IC50: 3.1 nM

Structure (SMILES): CC(=O)c1cnc2ccc(-c3cnc(C#N)nc3)cc2c1Nc1ccc(CN(C)C)cc1
- IC50: 2.2 nM

Structure (SMILES): COc1cc(-c2ccc3ncc(C(=O)C4CC4)c(Nc4ccc(C5CCCN5C)cn4)c3c2)cc(Cl)c1O (stereo not drawn)
- IC50: 36 nM

Structure (SMILES): COc1cc(-c2ccc3ncc(C#N)c(N[C@H]4CC[C@H](N(C)C)CC4)c3c2)cc(Cl)c1O
- IC50: 1.8 nM

Structure (SMILES): Cc1cc(O)c(Cl)cc1-c1ccc2ncc(C(=O)C3CC3)c(N3CCC(CN(C)C)CC3)c2c1
- IC50: 60 nM

Structure (SMILES): CN(C)CC1CCN(c2c(C(=O)C3CC3)cnc3ccc(-c4ccc(OC(F)F)cc4)cc23)CC1
- IC50: 630 nM

Structure (SMILES): O=C(c1cnc2ccc(-c3cc(Cl)c(O)c(Cl)c3)cc2c1Nc1ccc(CN2CCOCC2)cc1)C1CC1
- IC50: 20 nM

Structure (SMILES): CN(C)Cc1ccc(Nc2c([S+](C)[O-])cnc3ccc(-c4cc(Cl)c(O)c(Cl)c4)cc23)cc1 (stereo not drawn)
- IC50: 8.2 nM

Structure (SMILES): CN(C)CC1CCN(c2c(C(=O)C3CC3)cnc3ccc(-c4ccc5c(c4)CC(=O)N5)cc23)CC1
- IC50: 660 nM

Structure (SMILES): N#Cc1ncc(-c2ccc3ncc(C(=O)C4CC4)c(Nc4ccc(CN)cc4)c3c2)cn1
- IC50: 1.3 nM

Structure (SMILES): O=C(c1cnc2ccc(-c3cc(Cl)c(O)c(Cl)c3)cc2c1N[C@H]1CC[C@H](CN2CCCC2)CC1)C1CC1
- IC50: 1.4 nM

Structure (SMILES): CN1CCN(C[C@H]2CC[C@H](Nc3c(C(=O)C4CC4)cnc4ccc(-c5cc(Cl)c(O)c(Cl)c5)cc34)CC2)CC1
- IC50: 4.2 nM and 2.8 nM

Structure (SMILES): CN(C)C1CCN(C[C@H]2CC[C@H](Nc3c(C(=O)C4CC4)cnc4ccc(-c5cc(Cl)c(O)c(Cl)c5)cc34)CC2)C1 (stereo partly drawn)
- IC50: 3 nM

Structure (SMILES): CN(C)C1CCN(Cc2ccc(Nc3c(C(=O)C4CC4)cnc4ccc(-c5cc(Cl)c(O)c(Cl)c5)cc34)cc2)C1 (stereo not drawn)
- IC50: 7.2 nM and 5.6 nM

Structure (SMILES): O=C(c1cnc2ccc(-c3cc(Cl)c(O)c(Cl)c3)cc2c1N1CCC(CCN2CCCC2)CC1)C1CC1
- IC50: 2.3 nM

Structure (SMILES): CC(=O)c1cnc2ccc(-c3cc(Cl)c(O)c(Cl)c3)cc2c1N[C@H]1CC[C@H](CN2CCN(C)CC2)CC1
- IC50: 5.5 nM

Structure (SMILES): CC(=O)c1cnc2ccc(-c3cc(Cl)c(O)c(Cl)c3)cc2c1N[C@H]1CCC[C@@H](CN2CCN(C)CC2)C1
- IC50: 2.7 nM

Structure (SMILES): CCN(CC)CCO[C@H]1CC[C@H](Nc2c(C(C)=O)cnc3ccc(-c4cc(Cl)c(O)c(Cl)c4)cc23)CC1
- IC50: 2.9 nM

Structure (SMILES): CC(=O)c1cnc2cc(C)c(-c3cc(Cl)c(O)c(Cl)c3)cc2c1N[C@H]1CC[C@H](CN2CCC(N)C2)CC1 (stereo partly drawn)
- IC50: 55 nM

Structure (SMILES): CS(=O)(=O)c1cnc2ccc(-c3cc(Cl)c(O)c(Cl)c3)cc2c1Nc1cccc(CCN2CCCC2)c1
- IC50: 2 nM

Structure (SMILES): CC(=O)c1cnc2ccc(-c3cc(Cl)c(O)c(Cl)c3)cc2c1Nc1ccc(S(=O)(=O)N2CCN(C)CC2)cc1
- IC50: 36 nM

Structure (SMILES): CS(=O)(=O)c1cnc2ccc(-c3cc(Cl)c(O)c(Cl)c3)cc2c1N[C@H]1CC[C@H](CN2CCCC2)CC1
- IC50: 2.7 nM

Structure (SMILES): CN(C)C1CCN(c2ccc(Nc3c(S(C)(=O)=O)cnc4ccc(-c5cc(Cl)c(O)c(Cl)c5)cc34)cn2)C1 (stereo not drawn)
- IC50: 2.4 nM

Structure (SMILES): CN(C)C[C@H]1CC[C@H](Nc2c(C(=O)C3CCCC3)cnc3ccc(-c4cc(Cl)c(O)c(Cl)c4)cc23)CC1
- IC50: 3 nM

Structure (SMILES): CN(C)C[C@H]1CC[C@H](Nc2c(C(=O)C(C)(C)C)cnc3ccc(-c4cc(Cl)c(O)c(Cl)c4)cc23)CC1
- IC50: 22 nM

Structure (SMILES): CC(=O)c1cnc2ccc(-c3cc(Cl)c(O)c(Cl)c3)cc2c1N[C@H]1CC[C@H](NC(=O)[C@@H](N)C(C)(C)C)CC1
- IC50: 4.2 nM

Structure (SMILES): O=C(c1cnc2ccc(-c3cc(Cl)c(O)c(Cl)c3)cc2c1Nc1cccc(CCN2CCCC2)c1)C1CCCC1
- IC50: 9.6 nM

Structure (SMILES): CC(N)C(=O)N[C@H]1CC[C@H](Nc2c(C(=O)C(C)(C)C)cnc3ccc(-c4cc(Cl)c(O)c(Cl)c4)cc23)CC1 (stereo partly drawn)
- IC50: 15 nM
